Source: US4844894A, “Method of inhibiting the onset of septicemia and endotoxemia” (priority 1986, dated 1989)

What was measured:
[1] = test system: rabbits; details: Table B, refs (1), (3); cited from earlier work
[2] = Phosphorous content; format: physicochemical; details: Percent by weight
[3] = test system: endotoxin (E. coli 0111:B 4); test: Non-septic endotoxemia: endotoxin (E. coli 0111:B4) challenge ip in mice; format: in vivo; details: 100 ug MPL ip day 0
Protocol: (§1) A model for non-septic endotoxemia is to inject mice intraperitoneally (ip) with endotoxin. […] Depending on the dose, death may occur within about 72 hours. The LD50 can be determined by injecting groups of mice with different doses of endotoxin, and noting the number of survivors in each group. The protective effect of a given treatment is evidenced by an increase in the LD50 of the endotoxin challenge.
(§2) In this embodiment, mice were injected ip on day 0 with either 100 ug MPL in 0.25 ml saline (treatment group) or else saline alone (control group). On day 3, mice in both groups received an ip injection containing one of several different doses of endotoxin (E. coli 0111:B 4). There were 8 mice at each endotoxin dose level. The doses for the control group were […] endotoxin. The doses for treatment group were 0.75, 1.00, 1.25, 1.50, 2.0, and 2.5 mg endotoxin. […] The LD50 for each group was calculated using the method of Reed and Meuench (ibid.). […] Since only 2 mice dies at the highest endotoxin dose in the treatment group, the LD50 the LD50 could not be calculated for this group. It is evident, however, that it would be well above 2.5 mg, probably around 5-6 mg. This would correspond to at least a 4 to 5 fold increase in the LD50 following treatment with MPL.

[4] = relative to parent endotoxin; cited from earlier work
[5] = test system: endotoxin from E. coli K235; test: Non-septic endotoxemia: endotoxin from E. coli K235 challenge ip in mice; format: in vivo; details: pre-treated with 100 ug MPL
Protocol: as §1, §2
In another experiment the LD50 's for both the control and the treatment groups were successfully determined. The experimental design was essentially the same as that described above except that the endotoxin used was obtained from E. coli K235.

[6] = test system: E. coli 055B5; test: Septic endotoxemia: challenge with 30 LD50's of E. coli 055B5 in mice; format: in vivo; details: 25, 25 and 50 ug MPL ip on days 0, 1 and 2; challenge on day 2
Protocol: (§3) Injection of mice ip with live E. coli provides a good model of gram-negative sepsis and associated endotoxemia, since E. coli readily sheds endotoxin. In this model, a known quantity of live E. coli are injected, and the survivors are counted for an appropriate number of days. The effectiveness of a treatment is evidenced by an increase in the survivorship for a treated group.
In a manner similar to that employed in Example 3, 10 mice were given ip injections on days 0, 1 and 2 of 25, 25 and 50 ug MPL, respectively, corresponding to a total of 100 ug MPL for each mouse. Mice in the control group received only saline. On day 2, all mice received a challenge consisting of 30 LD50 's of E. coli 055B5. This corresponds to an overwhelming challenge dose. No mice in the control group survived, while 50% animals (5/10) in the treatment group survived.

[7] = test system: chick embryos; test: Chick embryo 50% lethal dose assay (CELD50); format: in vivo
Protocol: A sensitive measure of endotoxin toxicity is the chick embryo 50% lethal dose assay (CELD50). In this test, chick embryos at 10 days of age are injected with varying doses of the material to be tested. […] Using the chick embryo test, a comparison was made of the toxicity of radiation-detoxified endotoxin with the parent endotoxin as well as with MPL.

[8] = test system: septicemia; test: Nonspecific resistance to septicemia induced in mice by cecal ligation and puncture; format: in vivo, NMRI mice; details: 1 μg, ip, 24 hr prior surgery
Protocol: 14 NMRI mice were pretreated with one microgram of MPL administered by intraperitoneal injection. 24 hours later each of the mice underwent surgery wherein the cecum of each mouse was ligated and punctured to internally expose the mice to microorganisms capable of instigating the onset of septicemia. […] A second group of mice were subjected to surgery in precisely the same way without pretreatment with MPL.

[9] = test system: E. coli 055B5; test: Septic endotoxemia: challenge with 5 LD50's of live E. coli 055B5 in mice; format: in vivo; details: 50 ug MPL ip on days 0 and 1; challenge on day 2
Protocol: as §3
In the experiment, 10 mice were given ip injections of 50 ug MPL on days 0 and 1. They therefore received a total of 100 ug MPL. The control group received only saline. All mice were challenged on day 2 with 5 LD50 's of E. coli 055B5 organisms, also injected ip. All control animals died, whereas all treated animals (10/10) survived.

[10] = test system: rabbits; details: Table B, ref (2); cited from earlier work
[11] = test system: rabbits; details: Table B, refs (1), (2); cited from earlier work
[12] = 120 hrs after induction of septicemia

## CCCCCCCCCCCCCC(=O)OC(CCCCCCCCCCC)CC(=O)OC1C(NC(=O)CC(CCCCCCCCCCC)OC(=O)CCCCCCCCCCC)C(OCC2OC(O)C(NC(=O)CC(O)CCCCCCCCCCC)C(OC(=O)CC(O)CCCCCCCCCCC)C2O)OC(CO)C1OP(=O)(O)O (stereo not shown) [MPL, Monophosphoryl Lipid A]
[1]
  Local Shwartzman Reaction in rabbits (area of hemorrhagic lesion): < 10 mm^2
[2]
  Phosphorous Content: 1.8%
[3]; 2.5 mg endotoxin day 3, 8 mice per dose level
  mice dying at the highest endotoxin dose: 2 mice
[3]; endotoxin ip day 3
  fold increase in LD50 of endotoxin following treatment: 4 to 5 fold
[4]
  toxicity in all of the Table B assays, in words: only negligible toxicity
[5]
  LD50 of endotoxin in pre-treated mice: 1.16 mg
  increase (factor) in LD50 of endotoxin: ~5 factor
  symptoms of endotoxemia: did not show any of the usual symptoms of endotoxemia
[6]
  animals survived in treatment group: 5/10
  survival, % of animals in treatment group: 50%
[7]; at any dose, footnote to Table A
  eggs killed in CELD50 test: No eggs killed at any dose
[7]; chick embryos at 10 days of age, survivors at 24 hours
  CELD50: > 20 µg
[7]; text conclusion from Table A
  toxicity in CELD50 assay, in words: essentially no toxicity
[8]
  effect on onset of septicemia, in words: inhibits the onset of septicemia
[8]; [12]
  % Survival: 71%
  Dead/Total: 4/14
[9]
  treated animals survived: 10/10
[10]
  LD50 in rabbits: > 8,000 mcg/kg
[11]
  Pyrogenicity in rabbits (difference between basic and maximal body temperature): 0 °C
